Molecules are shown by their SMILES.

In the case of `O=C1NCCN1Cc1ccc2c(Br)cccc2c1`, the melting point was in the range of 158 to 161 °C.

In turn, `C#Cc1cccc(N2C(=O)c3ccccc3C2=O)c1` displayed a melting point of 197 to 198 °C.

In turn, `O=c1c2ccccc2c(-c2ccccc2)c2n1CCCC2O` (stereo unspecified) had a melting point of 220 to 222 °C.

With `COCCc1ccsc1S(N)(=O)=O`, the melting point was 64 to 73 °C.

On to `Cc1c(SCCCl)ccnc1CSc1nc2ccccc2[nH]1`, for which the melting point was 178 to 180 °C.

`IC#CCOc1ccncc1`: the melting point was in the range of 140 to 141 °C.

Turning to `COc1cccc2cc(CNCCNC(=O)C34CC5CC(CC(C5)C3)C4)oc12`, the melting point lay in the range of 105 to 110 °C.

For the compound `CCc1cc2c(cc1OCc1ccccc1)CCC1C2CCC2(C)C(=CCO)CCC12` (stereo unspecified), the melting point was in the range of 61 to 62 °C.

Compound `O=C(c1ccc(I)cc1)N1CCOCC1` returned a melting point of 116 to 117 °C.

In turn, `CCCCOc1ncc(C(=O)N[C@@H]2CCCC[C@H]2O)cc1-c1cc(C(F)(F)F)ccc1F` displayed a melting point of 172 to 178 °C.

`O=C(Cn1c(-c2ccc(Cl)cc2)nc2cccnc21)NCC1CC1`: the melting point lay within 228 to 229 °C.

`CCCCCCCCCCCCn1c2nc(=O)[nH]c(=O)c-2nc2cc(C)c(C)cc21`: the melting point fell in the range of 223 to 224 °C.

The compound `Cn1c(=O)nc(-c2ccccc2)c2ccsc21` gave a melting point of 256 to 258 °C.

The compound `COc1cc(Nc2c(C#N)cnc3cc(-c4ccc(CN5CCC[C@@H]5C(N)=O)cc4)ccc23)c(Cl)cc1Cl` showed a melting point of 180 to 182 °C.

With `CC(=O)c1ccc(N)c(C(=O)c2ccccc2)c1`, the melting point is 158 to 161 °C.

`O=C(O)CCCCC1NC(=O)OC1=O` (stereo unspecified) displayed a melting point of 102 to 104 °C.

Consider `Cc1cncn1CC#Cc1cc(CN2CCOCC2)cc2c(=O)c(C(=O)NCc3ccc(Cl)cc3)cn(C)c12`, for which the melting point lay within 149 to 152 °C.

On to `CCNCC1CCN(c2c(F)cc3c(=O)c(C(=O)O)cn(C4CCCCC4)c3c2F)C1` (stereo unspecified), for which the melting point was 194 to 196 °C.

Compound `Cn1c(=O)c2c(O)nccc2n(C)c1=O` yielded a melting point of more than 300 °C.

`CNC(=O)c1ccc(-c2ccc3oc(C4CCN(C(=O)OC(C)C)CC4)nc3c2)cc1C` registered a melting point of 151 to 154 °C.

In turn, `O=C(Nc1cnn2ccccc12)C1CC1` gave a melting point of 159 to 162 °C.

Compound `O=C(O)c1cn(-c2ccc(F)cc2F)c2c(F)c(N3Cc4ccc(Br)cc4C3)c(F)cc2c1=O` displayed a melting point of 251 to 257 °C.

The compound `N#Cc1cc(C(=O)NNC(=O)c2occc2-c2ccccc2OCc2ccccc2)ccc1O` gave a melting point of 118 to 120 °C.

`O=C(O)c1cn(C2CC2)c2c(F)c(N3CCCC(n4cncn4)C3)c(F)cc2c1=O` (stereo unspecified) returned a melting point of 217 °C.

On to `[N-]=[N+]=C(C(=O)CC1CC(=O)N1)C(=O)OCc1ccc([N+](=O)[O-])cc1` (stereo unspecified), for which the melting point fell in the range of 114 to 116 °C.

`COC(=O)C1=C(C)NC(C)=C(c2nc(N(C)Cc3ccccc3)no2)C1c1cccc([N+](=O)[O-])c1` (stereo unspecified) gave a melting point of 182 to 184 °C.

`CCCc1c(O)c(C(C)=O)cc(Cl)c1OCCOCCOc1c(C(C)=O)ccc(OCC(=O)O)c1CCC` registered a melting point of 89 to 91 °C.

Consider `O=C(OC1CCN(Cc2ccccc2)CC1)c1ccc(Br)cc1`, for which the melting point was 71 to 72 °C.

Take `CCc1cccc(CC)c1NC(=O)NC1(c2ccccc2)CCC1`: the melting point is 227 to 230 °C.

In turn, `CCOC(=O)C1Cc2c([nH]c3ccccc23)CN1` (stereo unspecified) returned a melting point of 126 to 128 °C.

In the case of `CCOC(N)=C(C#N)C(N)=S`, the melting point lay within 170 to 171 °C.

`CCc1noc(C=C(N)c2ccccc2)c1C(=O)NC` displayed a melting point of 125 to 132 °C.

As to `COC(=O)c1ccc2c(c1)Sc1ccc(F)cc1C(=O)C2`, the melting point lay in the range of 129 to 131 °C.

`CC(C)(S)CN1CCN(c2ccccn2)CC1`: the melting point was in the range of 108 to 110 °C.

On to `Cc1ccccc1-c1noc2c3c(c(Cl)cc12)OC(C(=O)O)C3` (stereo unspecified), for which the melting point fell in the range of 192 to 195 °C.

`COC(=O)c1cc(C(=O)NCCCO)c2cc(Cc3ccc(F)cc3)cnc2c1O` yielded a melting point of 167 to 168 °C.

As usually defined, the melting point is the temperature of the solid-liquid transition.

Values taken from a melting point compilation (Tetko et al.; mined from patent text by program, amines drawn as free bases though some values may be those of a salt).
